Tests used:
pigs [1] = experiment: Dietary supplementation of female pigs: survivability and live births per litter; type: in vivo; settings: vs no supplementation and vs carnosine
Text: Beta-alanine will be used as a dietary supplement for pigs.
(§1) Beta-alanine supplementation will be provided to female pigs during pregnancy. Beta-alanine will be provided in dosages provided in concentrations and/or percentages for times described in this disclosure. Controls will be provided. Controls will include a group of female pigs given no additional supplementation beyond those currently administered during pig pregnancies. Another control group will be provided with supplementation with carnosine at dosages provided in concentrations and/or percentages for times described in this disclosure.
as §1, with “female pigs prior to and during pregnancy.” for “female pigs during pregnancy.”
as §1, with “pigs starting from breeding age through” for “pigs during”
as §1, with “pigs from birth through” for “pigs during”

chickens = settings: Example 2: supplementation of female chickens during pregnancy; vs no supplementation and vs carnosine
Text: (§2) Beta-alanine will be used as a dietary supplement for pigs and chickens.
as §1, with “pigs and female chickens” for “pigs”, “pig and chicken” for “pig”, “carnosine provided in” for “carnosine at”

pigs [2] = settings: Example 2: supplementation of female pigs during pregnancy; vs no supplementation and vs carnosine
Text: as §2
as §1, with “pigs and female chickens” for “pigs”, “pig and chicken” for “pig”, “carnosine provided in” for “carnosine at”

[3] = taken as a free amino acid; some individuals; cited from earlier work
[4] = Example 1: supplementation during pregnancy
[5] = Example 3: supplementation prior to and during pregnancy
[6] = Example 4: supplementation from breeding age through pregnancy
[7] = Example 5: supplementation from birth through pregnancy

Compound: NCCC(=O)O [beta-alanine]
- amount of live births per litter (pigs [1]; [4]): improves
- survivability (pigs [1]; [4]): improves
- amount of live births per litter (pigs [1]; [5]): improves
- survivability (pigs [1]; [5]): improves
- amount of live births per litter (pigs [1]; [6]): improves
- survivability (pigs [1]; [6]): improves
- amount of live births per litter (pigs [1]; [7]): improves
- survivability (pigs [1]; [7]): improves
- early development rate for chicks (chickens): improves
- early development rate for piglets (pigs [2]): improves
- duration of flushing/tingling of the skin [3]: less than 60 minutes
